Assay results taken from patent US20260232684A1, “FLT3 INHIBITORS AND METHODS OF USING THE SAME” (BIOVENTURES, LLC, priority 2023, published 2026).
“Also recorded” adds a separate entry of the source.

Columns and labels:
[1] = system: Molm14 cells (FLT3-ITD-expressing); test: Cell viability assay (CellTiter GLO), Molm14; assay type: cell-based, human; details: Molm14, 48 hours
Description: (§1) FIG. 1. […] Cells were treated with inhibitor at increasing log doses (0.1 nM-10 μM) for 48 hours. Cell viability was analyzed through CellTiter GLO. […] Cells were exposed to increasing amounts of each drug for 2 hours. GAPDH1 represents loading control for phospho-ERK and ERK blots. GAPDH2 represents loading control for phosphor-STAT5, STAT5, phospho-S6 and S6. Each experiment was completed in triplicate. Representative images are shown.
(§2) FIG. 5. […] Cells were dosed with inhibitor at increasing log doses (0.1 nM-10 μM) for 48 hours. Cell viability was analyzed through CellTiter GLO.
(§3) MV-4-11 and parental Molm-14 cells were a gift from Dr. Scott Kogan (University of California, San Francisco). HL60 and K562 cell lines were obtained from Charles Sawyers. […] Stable Ba/F3 lines were generated by retroviral infection as previously described (5). All cell lines were tested to be mycoplasma free and human cell lines were authenticated through STR profiling completed at the University of California, Berkeley.
(§4) Each triplicate was either dosed with drug or DMSO vehicle control. Drug dosing was completed at log doses ranging from 0.1 nM-10 μM. Cell viability was assessed after 48 hours using CellTiter GLO (Promega). Viability values were normalized to the vehicle control average. Numerical IC50 values were calculated in GraphPad Prism 7.

Molm14 F691L cells = test: Cell viability assay (CellTiter GLO), Molm14 F691L; assay type: cell-based, human; details: 48 hours
Description: as §1, §2, §3, §4

[2] = system: FLT3 phosphorylation in Molm14 D835Y cells; test: Immunoblotting of phospho-FLT3 and downstream signaling, Molm14 D835Y; assay type: cell-based, human; details: 2 hours, Western blot
Description: (§5) FIG. 1. Activity of compounds 1 and 2 against parental Molm14 cells harboring secondary kinase domain mutations associated with clinical resistance to active FLT3 TKIs. […] Each point represents the calculated IC50 from an independent experiment completed in triplicate. Cells were treated with inhibitor at increasing log doses (0.1 nM-10 μM) for 48 hours. Cell viability was analyzed through CellTiter GLO. […] Cells were exposed to increasing amounts of each drug for 2 hours. GAPDH1 represents loading control for phospho-ERK and ERK blots. GAPDH2 represents loading control for phosphor-STAT5, STAT5, phospho-S6 and S6. Each experiment was completed in triplicate. Representative images are shown.
(§6) Exponentially growing Molm-14 or Ba/F3 cells were plated with RPMI 1640+10% (vol/vol) FBS with the indicated amount of drug. Following 120 minute incubation at 37° C., cells were washed in PBS and lysed in HEPES lysis buffer supplemented with protease and phosphatase inhibitors and processed as previously described (39). Immunoblotting was performed using anti-phospho-tyrosine 4G10 antibody (Millipore Sigma) and anti-FLT3 antibody (Cell Signaling Technology) following immunoprecipitation with anti-FLT3 antibody from 500 μg of total protein. Immunoblotting of ERK, STAT5, S6 and GAPDH was performed with anti-phospho-ERK, anti-ERK, anti-phospho-STAT5, anti-STAT5, anti-phospho-S6, anti-S6 and anti-GAPDH antibody (Cell Signaling Technology)

Molm14 D835Y cells = test: Cell viability assay (CellTiter GLO), Molm14 D835Y; assay type: cell-based, human; details: 48 hours
Description: as §1, §2, §3, §4

[3] = system: panel of 468 kinases and kinase mutants; test: KINOMEscan screening; assay type: binding; details: for number of kinases bound relative to gilteritinib: 20× the Molm14 IC50 concentration of each compound
[4] = system: NCI-60 cell line panel (no FLT3 mutation); test: NCI-60 cell line panel; assay type: cell-based, human; details: for cytotoxic activity in NCI-60 panel, in words: compound 1: 30 μM single dose, compound 2: 5-dose; for antiproliferative effects in NCI-60 panel, in words: higher concentrations
Description: FIG. 12. Activity of compound 1 against the NCI-60 cell line panel. Percentage growth of 1 in the 30 μM single dose experiment within the NCI-60 cell line panel. No cell line within the panel harbors a FLT3 mutation.
FIG. 13. Activity of compound 2 against the NCI-60 cell line panel. Growth inhibition curves of 2 in the 5-dose GIso experiment within the NCI-60 cell line panel. No cell line within the panel harbors a FLT3 mutation.
Myelosuppression represents a critical limitation of current FLT3 TKIs. To assess the selectivity profiles, KINOMEscan screening was performed for 1, 2, and gilteritinib at 20× the Molm14 IC50 concentration of each compound (FIG. 2A).

[5] = system: FLT3 phosphorylation in parental Molm14 cells; test: Immunoblotting of phospho-FLT3 and downstream signaling, Molm14; assay type: cell-based, human; details: parental Molm14, 2 hours, Western blot
Description: as §5
as §6, with “Immunoblotting of ERK, STAT5, S6 and GAPDH was performed with anti-phospho-ERK, anti-ERK, anti-phospho-STAT5, anti-STAT5, anti-phospho-S6, anti-S6 and anti-GAPDH antibody (Cell Signaling Technology)” left out

[6] = system: normal donor bone marrow mononuclear cells (BM-MNC); test: Colony forming unit assay of normal bone marrow; details: for impact on CFU-G counts/growth: equivalent multiples of Molm14 IC50, 14 days, three healthy donors
Description: FIG. 2. […] Normal bone marrow mononuclear cells (BM-MNC) were purchased from StemCell Technologies. 30,000 cells were plated in methylcellulose with increasing concentrations of either gilteritinib, 1, or 2. Blast forming unit-erythroid (BFU-E) and colony forming unit-granulocyte (CFU-G) were counted after 14 days incubation. Assay was completed in triplicate with three independent blood donors. Data shown is cumulated from all independent experiments. Error bars show one standard deviation and p values compared to control were calculated using a Student's t-test. NS indicates an insignificant p value, * indicates p value≤0.05, ** indicates p value≤0.01, *** indicates p value≤0.001, **** indicates p value≤0.0001
Bone marrow mononuclear cells (BM-MNC) of healthy donors (n=3) were purchased from StemCell Technologies (Vancouver, Canada). Cells were plated in a 35 mm dish in triplicate with methylcellulose medium at a concentration previously determined to form approximately 100 total colonies, usually 30,000 cells/mL and containing the appropriate amount of drug. Dishes were incubated for 14-15 days and visually assessed for erythrocyte burst-forming units and granulocyte-macrophage colony-forming units.

[7] = system: HL60 cells (non-FLT3 driven); test: Cell viability assay (CellTiter GLO), HL60; assay type: cell-based, human; details: HL60, 48 hours
Description: as §1, §3, §4

FLT3 = FLT3 (Homo sapiens, UniProt P36888); test: Enzyme kinetic analysis (5-FAM microfluidic assay), FLT3; assay type: biochemical; details: variable ATP and inhibitor concentrations
Description: FIG. 14. Enzyme kinetic analysis of compound 1 and 2 against FLT3 and FLT3 D835Y. The 5-FAM labeled microfluidic assay was utilized and all the activities were measured using Caliper EZ Reader II with a 12-sipper chip. In the presence of variable concentrations of compound 1 or 2, phosphorylation activities of FLT3 and FLT3 D835Y were measured at different level of ATP within certain time durations.
To further assess putative binding modes of compounds 1 and 2, enzyme kinetic analyses were performed.

[8] = system: MV-4-11 cells (FLT3-ITD-expressing); test: Cell viability assay (CellTiter GLO), MV-4-11; assay type: cell-based, human; details: MV-4-11, 48 hours
Description: as §1, §3, §4

FLT3, sequence (P36888 27-993): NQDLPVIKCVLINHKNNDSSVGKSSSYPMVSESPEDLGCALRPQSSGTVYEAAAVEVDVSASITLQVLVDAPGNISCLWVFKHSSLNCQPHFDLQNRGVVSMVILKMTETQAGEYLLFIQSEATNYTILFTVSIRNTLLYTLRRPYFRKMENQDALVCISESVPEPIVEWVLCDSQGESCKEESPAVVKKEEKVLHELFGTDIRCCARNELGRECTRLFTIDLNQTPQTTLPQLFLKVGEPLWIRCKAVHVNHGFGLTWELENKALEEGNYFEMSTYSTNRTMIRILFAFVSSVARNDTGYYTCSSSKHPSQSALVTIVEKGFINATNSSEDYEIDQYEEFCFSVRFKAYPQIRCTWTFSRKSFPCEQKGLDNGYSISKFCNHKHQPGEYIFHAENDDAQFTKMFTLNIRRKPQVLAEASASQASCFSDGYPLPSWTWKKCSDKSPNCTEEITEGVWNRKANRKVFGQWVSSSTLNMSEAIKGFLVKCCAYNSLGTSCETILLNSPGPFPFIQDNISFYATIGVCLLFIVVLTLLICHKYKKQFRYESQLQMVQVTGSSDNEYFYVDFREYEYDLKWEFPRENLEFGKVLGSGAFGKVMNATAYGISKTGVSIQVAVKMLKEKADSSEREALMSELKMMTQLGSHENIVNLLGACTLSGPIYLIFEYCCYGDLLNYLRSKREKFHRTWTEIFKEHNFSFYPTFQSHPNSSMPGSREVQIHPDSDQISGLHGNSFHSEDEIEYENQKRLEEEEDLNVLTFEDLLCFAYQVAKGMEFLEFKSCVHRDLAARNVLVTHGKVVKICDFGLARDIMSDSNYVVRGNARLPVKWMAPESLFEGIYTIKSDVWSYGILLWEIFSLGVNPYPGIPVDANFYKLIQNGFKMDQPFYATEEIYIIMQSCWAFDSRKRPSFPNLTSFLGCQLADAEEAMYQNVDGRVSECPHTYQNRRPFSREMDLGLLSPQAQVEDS

## CC(C)(C)c1cc(NC(=O)Cc2ccc(-c3cnc4cc(-c5cnn(CCN6CCOCC6)c5)ccc4n3)cc2)no1 [Compound 2, N-(5-(tert-butyl)isoxazol-3-yl)-2-(4-(6-(1-(2-morpholinoethyl)-1H-pyrazol-4-yl)quinoxalin-2-yl)phenyl) acetamide]
[1]
  activity in cell viability assay (IC50, FIG. 1A/5B), in words: activity comparable to quizartinib and superior to gilteritinib
Molm14 F691L cells
  activity in cell viability assay (IC50, FIG. 1A/5B), in words: retain activity
[2]
  concentration that fully ablated FLT3 phosphorylation: 50 nM
  inhibition of FLT3 phosphorylation and downstream targets, in words: somewhat decreased ability to inhibit phosphorylation
Molm14 D835Y cells
  activity in cell viability assay (IC50, FIG. 1A/5B), in words: retain activity
[3]
  number of kinases bound relative to gilteritinib: bound to far fewer kinases than gilteritinib
[4]
  cytotoxic activity in NCI-60 panel, in words: neither compound displayed any significant cytototoxic activity
  antiproliferative effects in NCI-60 panel, in words: antiproliferative effects were noted at higher concentrations
[5]
  inhibition of FLT3 phosphorylation and downstream signaling, in words: low nanomolar concentrations were sufficient to inhibit phosphorylation of FLT3
[6]
  impact on BFU-E counts/growth: no significant impact on BFU-E growth at any concentration
  impact on CFU-G counts/growth: less impact on CFU-G growth than gilteritinib
[7]
  activity in cell viability assay (IC50, FIG. 1A), in words: neither compound displayed any concerning toxicity
FLT3
  binding mode / inhibitor type from enzyme kinetics: type 2 inhibitor; also recorded: type 2 binding mode
[8]
  activity in cell viability assay (IC50, FIG. 1A), in words: activity comparable to quizartinib and superior to gilteritinib

## CN(C)CCNc1ncc(F)c(-c2cnc3cc(-c4cnn(C)c4)ccn23)n1 [Compound 1]
[1]
  activity in cell viability assay (IC50, FIG. 1A/5B), in words: activity comparable to quizartinib and superior to gilteritinib
Molm14 F691L cells
  activity in cell viability assay (IC50, FIG. 1A/5B), in words: retain activity
[2]
  inhibition of FLT3 phosphorylation and downstream targets, in words: potent inhibition of phosphorylation
Molm14 D835Y cells
  activity in cell viability assay (IC50, FIG. 1A/5B), in words: retain activity
[3]; 20× the Molm14 IC50 concentration
  selectivity profile, in words: remarkable selectivity profile
[3]
  number of kinases bound relative to gilteritinib: bound to far fewer kinases than gilteritinib
[3]; KINOMEscan analysis
  six kinases bound with greatest affinity: FLT3, IRAK4, PHGK1, PHGK2, CDK7, TRKA
[4]
  cytotoxic activity in NCI-60 panel, in words: neither compound displayed any significant cytototoxic activity
  antiproliferative effects in NCI-60 panel, in words: antiproliferative effects were noted at higher concentrations
[5]
  inhibition of FLT3 phosphorylation and downstream signaling, in words: low nanomolar concentrations were sufficient to inhibit phosphorylation of FLT3
[6]
  impact on BFU-E counts/growth: no significant impact on BFU-E growth at any concentration
  impact on CFU-G counts/growth: less impact on CFU-G growth than gilteritinib
[7]
  activity in cell viability assay (IC50, FIG. 1A), in words: neither compound displayed any concerning toxicity
FLT3
  binding mode / inhibitor type from enzyme kinetics: type 1 inhibitor; also recorded: type 1 binding mode
[8]
  activity in cell viability assay (IC50, FIG. 1A), in words: activity comparable to quizartinib and superior to gilteritinib
